The values that follow come from PubChem BioAssay (NCI).

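Cultured in 96-well plates, cells were exposed to test compound for 48 hours across five concentrations. GI50: concentration for 50% inhibition of growth. At the TGI there is no net growth.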 *1 amine or outer side, *2 acyl side, *3 side chain or, on linkers, in order; H or OH if unused. Where a SMILES comes first, the peptide text is derived from it. Bridges are numbered along the chain shown (N, C = ends). [ ]: non-standard residue; d: D form. The star is where a group is joined. ξ: configuration not given here. Phe(3,5-F2) = N[C@@H](Cc1cc(F)cc(F)c1)C(=O)O; ξThr(3S) = C[C@H](O[*:3])C(N[*:1])C(=O)[*:2]; X25 = C[C@H]1OCCN([*:1])[C@@H]1C(=O)[*:2]; Phe(3-F) = N[C@@H](Cc1cccc(F)c1)C(=O)O; Pro(4R-Me) = C[C@H]1CN[C@H](C(=O)O)C1; aThr = C[C@H](O)[C@H](N)C(=O)O; X24 = O=S(=O)(F)Oc1ccc(N*)cc1; Pip = O=C(O)[C@@H]1CCCCN1; X8 = CCc1ccc(N*)c(F)c1; CO = O=C([*:1])[*:2]

The test system of this assay is MDA-MB-468 breast. Description: inhibition of tumour cell growth, NCI panel, 48 h.
As to `O=c1[nH]c2ccccc2cc1-c1nnc(Cc2ccccc2)o1`, the GI50 was 2290 nM and the TGI came out at 9870 nM. With `O=C(Nc1nc2ccc(S(=O)(=O)Nc3ccc(C4(C(F)(F)F)CC4)cc3)cc2[nH]1)c1cnccn1`, the GI50 is 515 nM and the TGI turned out to be 5740 nM.

On to `N#CN1CC[C@H](C(=O)Nc2ncc(-c3ccccc3)s2)C1`, for which the GI50 was 177 nM and the TGI worked out at 423 nM.

Consider `S=C(Sc1ccc(Cl)cc1)Sc1ccc(Cl)cc1`, for which the GI50 was 2300 nM and the TGI turned out to be 6900 nM.

On to `COC(=O)c1ccc(NC(N)=NCCC(C)(C)c2ccc(C(F)(F)F)cc2)nc1`, for which the GI50 was 1100 nM and the TGI came to 2790 nM. For `C/C(=C/CCC(C)[C@@H]1CC[C@]2(C)C3=C(CC[C@@]12C)[C@@]1(C)CCC(=O)C(C)(C)[C@@H]1CC3)C(=O)O` (stereo partly drawn) the same measures were 1110 nM and 2710 nM. Turning to `Cc1ccccc1Nc1cc(O)c2c(=O)cc(-c3ccccc3)oc2c1`, the GI50 was 379 nM and the TGI was found to be 3030 nM. Regarding `COc1cc([C@@H]2c3cc4c(cc3[C@H](SC(=N)N)[C@H]3COC(=O)[C@H]23)OCO4)cc(OC)c1OC`, the GI50 was 106 nM and the TGI was 2570 nM.

`Nc1c(C(=O)Nc2ccccc2)sc2nc3c(cc12)C(=O)CCC3`: the GI50 is 161 nM and the TGI amounted to 611 nM.

With `C[C@@H]1C[C@H]2C(=O)O[C@@H](C)C(NC(=O)[C@H](Cc3cc(F)cc(F)c3)NC(=O)Nc3ccc(OS(=O)(=O)F)cc3)C(=O)N3CCC[C@H]3C(=O)N3CCO[C@H](C)[C@H]3C(=O)N[C@@H](CO)C(=O)N2C1` (stereo partly drawn) ({X24-CO}-[Phe(3,5-F2)][ξThr(3S)]P[X25]S[Pro(4R-Me)]; ester 2-C), the GI50 was 416 nM and the TGI came out at 5810 nM. For the compound `CO[C@H]1C(=O)[C@]2(C)[C@@H](OC)C[C@H]3OC[C@@]3(OC(C)=O)[C@H]2[C@H](OC(=O)c2ccccc2)[C@]2(O)C[C@H](OC(=O)[C@H](O)[C@@H](NC(=O)OC(C)(C)C)c3ccccc3)C(C)=C1C2(C)C`, the GI50 was less than 10 nM and the TGI came to 419 nM. For `Cn1cc(-c2ccc3ncc(-c4ccc(CC(=O)Nc5cc(C(C)(C)C)nn5C)cc4)cc3c2)cn1`, the GI50 is 799 nM and the TGI was greater than 20000 nM. `O=C1Nc2ccc(-c3cccnc3)cc2/C1=C/c1cc(Br)c(O)c(Br)c1`: the GI50 is 6020 nM and the TGI came to 16100 nM. `O=C(Nc1ccc(-n2cc(-c3ccncc3)c(-c3ccc(O)c(Cl)c3)n2)cc1)Nc1cc(C(F)(F)F)cc(C(F)(F)F)c1`: the GI50 was 3280 nM and the TGI amounted to 13200 nM. With `CCOC(=O)c1cc(C(=O)c2ccc(OC)c(OC)c2)n2c1ccc1ccc3cccnc3c12`, the GI50 is 2830 nM and the TGI was greater than 100000 nM.

Consider `O=C(CI)NC(=O)NC(=O)NCc1ccccc1`, for which the GI50 was 2120 nM and the TGI was determined as 4660 nM. For `COc1ccc([C@@]23Oc4cc(OC)cc(OC)c4[C@]2(O)[C@H](O)[C@H](C(=O)N(C)C)[C@H]3c2ccccc2)cc1`, the GI50 was 15.1 nM and the TGI was 141 nM. As to `Cc1ccc2ccc3c4ccccc4ccc3c2c1`, the GI50 is 16100 nM and the TGI was determined as 40400 nM.

With `Cc1ccc(C(=O)Nc2ccc(Oc3cc4cnn(C)c4cc3-c3cn[nH]c3)c(F)c2)c(=O)n1-c1ccc(F)cc1`, the GI50 was 3200 nM and the TGI was greater than 100000 nM.

In the case of `COc1cccc(-c2cc(=O)c3cc(N4CCN(C)CC4)ccc3[nH]2)c1`, the GI50 was 6030 nM and the TGI was greater than 100000 nM.

In the case of `COC(=O)[C@]12CC[C@@H](C)[C@H](C)[C@@H]1C1=CC[C@@H]3[C@@]4(C)C(C=O)=C[C@@](C)(COS(C)(=O)=O)C4=CC[C@@]3(C)[C@]1(C)CC2`, the GI50 was 247 nM and the TGI was determined as 752 nM. For `CCc1ccc(Oc2c(-c3ccc(OCc4ccc(Cl)cc4)cc3O)nn(C)c2C(F)(F)F)cc1`, the GI50 was 337 nM and the TGI was 1620 nM. The corresponding values for `O=c1[nH]c(=S)[nH]c(O)c1/C=C1\C=Nc2ccccc21` are 14400 nM and 31100 nM. For `C/C(=N/NC(N)=S)c1ccc(Nc2nc(SCC(C)C)nc(-c3ccc(F)cc3)c2C#N)cc1`, the GI50 is 1060 nM and the TGI amounted to 7700 nM. For `OCc1ccc(-c2ccc(-c3ccc(CO)o3)o2)o1` the same measures were 764 nM and 3050 nM.

Take `C[C@]12CCc3nc(Nc4ccc(O)cc4)sc3C1=CC[C@@H]1[C@@H]2CC[C@]2(C)/C(=N/NC(N)=S)CC[C@@H]12`: the GI50 is 1300 nM and the TGI came out at 3020 nM. Consider `CN(C)CCCOc1ccc(NC2=C(Cl)C(=O)C(Nc3ccc(OCCCN(C)C)cc3)=C(Cl)C2=O)cc1`, for which the GI50 was 360 nM and the TGI came to 1260 nM. The corresponding values for `O=C(Nc1ccc(-n2cc(-c3ccncc3)c(-c3ccc(Cl)c(O)c3)n2)cc1)c1cc(C(F)(F)F)cc(C(F)(F)F)c1` are 2160 nM and 7600 nM.

In the case of `CC(=O)Nc1cccc(C#Cc2cncnc2Nc2ccc(OCc3cccc(F)c3)c(Cl)c2)c1`, the GI50 was 1140 nM and the TGI was found to be 5670 nM. Turning to `CCc1ccc(NC(=O)N[C@@H](Cc2cccc(F)c2)C(=O)N[C@@H]2C(=O)N3CCC[C@H]3C(=O)N3CCCC[C@H]3C(=O)N[C@@H](C)C(=O)N3C[C@H](C)C[C@H]3C(=O)O[C@H]2C)c(F)c1` ({X8-CO}-[Phe(3-F)][aThr]P[Pip]A[Pro(4R-Me)]; ester 2-C), the GI50 was 129 nM and the TGI was determined as 799 nM. For `NC(=O)c1nc(-c2c(F)cccc2Cl)oc1Nc1ccc(C(=O)N2CCOCC2)cc1` the same measures were 4330 nM and 36700 nM. The corresponding values for `CCN(CC)CCCC(Nc1c2ccc(Cl)cc2nc2ccc(OC)cc12)c1ccc(Cl)cc1` (stereo not drawn) are 352 nM and 1190 nM.

Regarding `N#Cc1cc(F)cc(Oc2ccc(S(=O)(=O)C(F)F)c3c2CC(F)(F)[C@H]3O)c1`, the GI50 was 16600 nM and the TGI worked out at 66900 nM. Consider `CN(C)CCNC(=O)Nc1ccc(N(C)c2ccnc(Nc3ccc(CS(C)(=O)=O)cc3)n2)cc1`, for which the GI50 was greater than 13300 nM and the TGI is greater than 25000 nM. On to `CCN1C(=O)N(CC)C2C1NC(=S)N2/N=C/C=C/c1ccccc1` (stereo not drawn), for which the GI50 was 54.6 nM. As for `O=C(NNc1nc2cc(F)ccc2n2c(CN3CCC(O)C3)ccc12)c1cnccn1` (stereo not drawn), the GI50 was 815 nM and the TGI amounted to 7630 nM.

As for `COc1ccc(-c2cnc(-c3ccncc3-c3cccc(OC)c3)o2)cc1`, the GI50 is 178 nM and the TGI is 10400 nM. On to `NC1=NC(c2ccccc2Cl)c2c(n[nH]c2N)N1` (stereo not drawn), for which the GI50 is 11100 nM and the TGI was determined as 99600 nM. `C#COc1cccc(Nc2ncnc3cc(NC(=O)[C@@H](C)Cl)ccc23)c1`: the GI50 is 13500 nM and the TGI came out at 50800 nM. Turning to `Nc1ncnc2c1c(-c1ccc(Oc3ccccc3)cc1)nn2CC1SSCC1O` (stereo not drawn), the GI50 was 801 nM and the TGI was 2020 nM.

`COc1cc(OC)c(S(N)(=O)=O)cc1C(=O)/C=C/c1ccc(C)cc1`: the GI50 was 1960 nM and the TGI amounted to 7030 nM. `Cc1cc(NC(=O)NC(=O)c2ccccc2NC(=O)CN(C)C)ccc1Oc1ncc(Br)cn1`: the GI50 is 3620 nM and the TGI was greater than 100000 nM.
